{"source": "patent US7030135B2", "about": "“Inhibitors of 11-β-hydroxy steroid dehydrogenase type 1” (Biovitrum AB, priority 2000, dated 2006)", "key": {"[1]": {"biological_target": "T1, human 11-β-hydroxysteroid dehydrogenase type-1 enzyme (11-β-HSD1) (Homo sapiens, UniProt P28845)", "T1 construct": "made in house; host or cells: Pichia pastoris", "T1 sequence (P28845 whole entry)": "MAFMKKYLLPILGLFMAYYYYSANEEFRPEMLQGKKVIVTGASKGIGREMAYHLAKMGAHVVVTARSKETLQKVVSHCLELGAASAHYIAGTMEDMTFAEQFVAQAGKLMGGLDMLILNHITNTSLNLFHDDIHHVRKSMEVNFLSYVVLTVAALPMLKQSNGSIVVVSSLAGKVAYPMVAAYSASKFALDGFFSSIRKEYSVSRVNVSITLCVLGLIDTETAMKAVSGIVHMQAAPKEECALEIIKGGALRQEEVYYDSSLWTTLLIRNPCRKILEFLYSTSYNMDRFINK", "assay": "11-β-HSD1 enzyme scintillation proximity assay", "assay_type": "biochemical", "conditions": "human 11-β-HSD1 expressed in Pichia pastoris; Ki calculated from IC50 (Cheng-Prusoff)", "excerpt": "[1,2(n)-^3H]-cortisone was purchased from Amersham Pharmacia Biotech. Anti-cortisol monoclonal mouse antibody, clone 6D6.7 was obtained from Immunotech and Scintillation proximity assay (SPA) beads coated with monoclonal antimouse antibodies were from Amersham Pharmacia Biotech. NADPH, tetrasodium salt was from Calbiochem and glucose-6-phosphate (G-6-P) was supplied by Sigma The human 11-β-hydroxysteroid dehydrogenase type-1 enzyme (11-β-HSD1) was expressed in Pichia pastoris. 18-β-glycyrhetinic acid (GA) was obtained from Sigma. The serial dilutions of the compounds were performed on a Tecan Genesis RSP 150. […]\nThe multiplication of plates was done on a WallacQuadra. The amount of the product [^3H]-cortisol, bound to the beads was determined in a Packard, Top Count microplate liquid scintillation counter. […]\nThe plates were covered with plastic film and incubated on a shaker for 30 minutes, at room temperature, before counting. The amount of [^3H]-cortisol, bound to the beads was determined in a microplate liquid scintillation counter.\nThe calculation of the Ki values for the inhibitors was performed by use of Activity Base. The Ki value is calculated from IC50 and the Km value is calculated using the Cheng Prushoff equation (with reversible inhibition that follows the Michaelis-Menten equation): […] [Cheng, Y. C.; Prushoff, W. H. Biochem. Pharmacol. 1973, 22, 3099–3108]. […]"}, "[2]": {"tested_on": "bone nodule formation", "conditions": "cited from earlier work"}}, "data": [{"smiles": "Cc1cc(Cl)cc(Cl)c1S(=O)(=O)Nc1nc2c(s1)C(=O)CC(C)(C)C2", "note": "[Example 8, 2,4-Dichloro-N-(5,5-dimethyl-7-oxo-4,5,6,7-tetrahydro-1,3-benzothiazol-2-yl)-6-methylbenzenesulfonamide.]", "values": [{"measurement": "Ki", "setting": "[1]", "value": 0.028, "unit": "µM"}]}, {"smiles": "Cc1cc(Br)ccc1S(=O)(=O)Nc1nc2c(s1)C(=O)CC(C)C2", "note": "(stereo not drawn) [Example 16, 4-Bromo-2methyl-N-(5methyl-7-oxo-4,5,6,7-tetrahydro-1,3-benzothiazol-2-yl)benzenesulfonamide]", "values": [{"measurement": "Ki", "setting": "[1]", "value": 0.227, "unit": "µM"}]}, {"smiles": "CC1(C)[C@@H](OC(=O)CCC(=O)O)CC[C@]2(C)[C@H]3C(=O)C=C4[C@@H]5C[C@@](C)(C(=O)O)CC[C@]5(C)CC[C@@]4(C)[C@]3(C)CC[C@@H]12", "note": "[carbenoxolone]", "values": [{"measurement": "negative glucocorticoid effect on bone nodule formation", "setting": "[2]", "value": "could be blocked"}]}]}
